{
  "source": "patent US20090061513A1",
  "about": "“Cell sorting and cell cultivation methods” (PicoVitro AB, priority 2007, published 2009)",
  "test_system": "doxorubicin resistant sub line RPMI8226Dox40",
  "assay": "Single cell seeding and cultivation in microplate with doxorubicin-spiked growth medium (drug resistance screening), resistant cells",
  "type": "cell-based, human",
  "settings": "6 days of incubation, resistant vs sensitive cells",
  "procedure": "The clean plates and semi-permeable top membranes were autoclaved for 20 min at 121° C. to obtain a sterile cell culture environment. An excess of recommended growth medium was added to the plate, and manually distributed evenly to all wells by an autoclaved hand scraper (VWR) or sterile cell scrapers (Falcon, for one-time use only). Then, automatic single cell seeding into predefined wells of the microplate was carried out using the FACS. A motorized x/y-stage combined with the software CloneCyt Plus (BD Biosciences) was used to control the exact position of every cell sorted in the plate. Selection of the cells to be seeded was performed based on their individual FSC/SSC (forward scatter/side scatter) properties (i.e. size and granularity). The cells were analyzed at a rate of approximately 100 cells/s. A representative set of cells was sought, meaning that all viable cells in the sample were selected for seeding into the plate. The cells were sorted directly from recommended growth medium in concentrations ranging from 10^5-10^6 cells/ml. FACS Clean solution (BD Biosciences) was let through the fluidics of the FACS prior to experiments to obtain sterility. The x/y-stage and the surrounding of the fluidics outlet was cleaned with 70% EtOH. During analysis, sterile 0.25×PBS was used as sheath buffer. […]",
  "data": [
    {"compound": "COc1cccc2c1C(=O)c1c(O)c3c(c(O)c1C2=O)C[C@@](O)(C(=O)CO)C[C@@H]3O[C@H]1C[C@H](N)[C@H](O)[C@H](C)O1", "note": "[Doxorubicin, doxorubicin]", "values": [
      {"measurement": "Proliferation at higher drug concentrations", "value": "only resistant cells can proliferate at higher drug concentrations"}
    ]}
  ]
}
